Measured values from PubChem BioAssay (NCI).
“And” between values parts separate entries of the source, which are not always exact repeats. Equal values may be shown once.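 Interpolation was linear, between the two tested concentrations surrounding the appropriate level; five concentrations were tested over 48 hours in 96-well plates. Here, GI50 denotes the concentration required for 50% inhibition of growth. At the TGI there is no net growth.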

What was measured:
Assay in all cases: DTP human tumour cell line panel, 48 h
[1] = tested on: HS 578T breast
[2] = tested on: SF-295 CNS
[3] = tested on: SNB-19 CNS
[4] = tested on: NCI/ADR-RES ovarian
[5] = tested on: MDA-N
[6] = tested on: 786-0 renal
[7] = tested on: COLO 205 colon
[8] = tested on: SN12C renal
[9] = tested on: NCI-H522 lung
[10] = tested on: TK-10 renal
[11] = tested on: U251 CNS
[12] = tested on: MOLT-4 leukemia
[13] = tested on: UACC-62 melanoma
[14] = tested on: HCC-2998 colon
[15] = tested on: RXF 393 renal

SMILES	TGI [1]	TGI [2]	TGI [3]	TGI [4]	TGI [5]	TGI [6]	TGI [7]	TGI [8]	TGI [9]	TGI [10]	TGI [11]	TGI [12]	TGI [13]	TGI [14]	TGI [15]	GI50 [14]	GI50 [4]	GI50 [8]	GI50 [12]	GI50 [13]
COC(=O)c1ccc(S)c(S(=O)(=O)Nc2n[nH]c(N)n2)c1	> 100 µM	> 100 µM	> 100 µM	> 100 µM	> 100 µM	> 100 µM	> 100 µM	> 100 µM	> 100 µM	> 100 µM	> 100 µM	> 100 µM	> 100 µM							
[N-]=[N+]=NI1OC(=O)c2ccccc21	> 100 µM	> 100 µM	> 100 µM	> 100 µM		> 100 µM	> 100 µM	> 100 µM	40.6 µM	> 100 µM	> 100 µM	> 100 µM	> 100 µM	> 100 µM	> 100 µM					
CCOC(=O)CNC(=O)C(CSC(=O)N(O)c1ccc(Cl)cc1)NC(=O)CCC(N)C(=O)OCC (stereo unspecified)	> 50 µM	> 50 µM	> 50 µM	> 50 µM	> 50 µM	> 50 µM	> 50 µM	> 50 µM			> 50 µM	> 50 µM	> 50 µM	> 50 µM	> 50 µM					
O=[N+]([O-])c1ccc(OC2CC3C4C=CC3C2C4)c([N+](=O)[O-])c1 (stereo unspecified)	> 100 µM	49.9 µM and > 31.6 µM	> 100 µM	> 100 µM		> 100 µM	> 100 µM	> 100 µM	> 100 µM	> 100 µM	> 100 µM	> 100 µM and 25.7 µM	> 100 µM	> 100 µM	> 100 µM	> 100 µM	76.4 µM and > 31.6 µM	86.4 µM and > 31.6 µM	> 100 µM and 14.1 µM	84.4 µM and > 31.6 µM
COc1ccc(OC)c(CNc2ccc(C(=O)O)cc2)c1	> 100 µM		> 100 µM	> 100 µM	> 100 µM	> 100 µM	> 100 µM		> 100 µM	> 100 µM	> 100 µM	> 100 µM	> 100 µM	> 100 µM						
NNC(=O)c1c(-c2cccnc2)cnc2ccccc12		> 100 µM	> 100 µM	> 100 µM	> 100 µM	> 100 µM	> 100 µM	> 100 µM	> 100 µM	> 100 µM	> 100 µM	> 100 µM	> 100 µM	> 100 µM	> 100 µM					
CCc1c(C)c(C#N)c(=S)n(C2OC(COC(C)=O)C(OC(C)=O)C(OC(C)=O)C2OC(C)=O)c1-c1ccccc1 (stereo unspecified)	68.2 µM	27 µM		> 31.6 µM	> 31.6 µM	> 31.6 µM	> 31.6 µM	> 31.6 µM	> 31.6 µM	> 31.6 µM	31 µM	> 31.6 µM		> 31.6 µM						
NC1CC(=O)c2c1sc(Cl)c2Cl (stereo unspecified)			> 100 µM	> 100 µM	> 100 µM	> 100 µM	> 100 µM	> 100 µM		> 100 µM	> 100 µM	> 100 µM	> 100 µM	> 100 µM	> 100 µM					
O=c1[nH]c(=S)nc2nc3c4ccc[nH]c4c4ccccc4c3nc12	> 100 µM	> 100 µM	> 100 µM		> 100 µM	> 100 µM	> 100 µM	> 100 µM	> 100 µM	> 100 µM	> 100 µM	> 100 µM	> 100 µM	> 100 µM	> 100 µM					
CN(C)C(=NCc1ccccc1)NC#N		> 100 µM	> 100 µM			> 100 µM	> 100 µM	> 100 µM	> 100 µM	> 100 µM	> 100 µM		> 100 µM	> 100 µM						
COc1cc(O)c2c(=O)c(O)c(-c3ccc(O)c(OC)c3)oc2c1		> 100 µM	> 100 µM	> 100 µM	> 100 µM	> 100 µM	> 86 µM	> 100 µM	6.21 µM	> 100 µM	18.1 µM	> 25 µM		> 100 µM						
CCCCCCCC1(N=[N+]=[N-])C(=O)Nc2ccccc2C1=O (stereo unspecified)	42 µM	36.2 µM	32.4 µM	48.5 µM	37.8 µM	32 µM	36.3 µM	34.4 µM		31 µM	28.8 µM	35.2 µM	23.8 µM	39.9 µM	25.1 µM					
C/C=C/C#CC#C/C=C/C=C/C(O)CCO (stereo unspecified)		> 23.1 µM	> 23.1 µM			> 23.1 µM	> 23.1 µM	> 23.1 µM	> 23.1 µM	> 23.1 µM	> 23.1 µM	> 23.1 µM	> 23.1 µM	> 23.1 µM	> 23.1 µM					
CC1(C)CNCC(C)(OCc2ccccc2)C(=O)NC(C)(C)CNCC(C)(OCc2ccccc2)C(=O)N1 (stereo unspecified)	> 10 µM	> 10 µM	> 10 µM		> 10 µM	> 10 µM		> 10 µM		> 10 µM	> 10 µM	> 10 µM	> 10 µM	> 10 µM	> 10 µM					
COc1c(=O)cc2cc[nH]c3ccn(C)c1c23	> 100 µM	> 100 µM	> 100 µM	> 100 µM	> 100 µM	> 100 µM	> 100 µM	> 100 µM		> 100 µM	> 100 µM	> 100 µM	> 100 µM	> 100 µM	> 100 µM					
C/C(=C\CBr)CCC(Br)C(C)(C)Cl (stereo unspecified)		> 100 µM				> 100 µM	> 100 µM	> 100 µM	> 100 µM	> 100 µM	> 100 µM	> 100 µM	> 100 µM		> 100 µM					
CC(=O)C1=CN=C2C(=O)N(c3ccccc3)N(C)C12C (stereo unspecified)		> 100 µM	> 100 µM	> 100 µM	> 100 µM	> 100 µM	> 100 µM	> 100 µM	> 100 µM	> 100 µM	> 100 µM	> 100 µM	> 100 µM	> 100 µM	> 100 µM					
